Measured values as given in patent US20240067660A1, “MACROCYCLIC SPIROCYCLE DERIVATIVES AS MCL-1 INHIBITORS” (Janssen Pharmaceutica NV, priority 2019, published 2024).
Like-named read-outs stand apart in the source and are kept apart here.

Assays:
[1] = target: Myeloid Cell Leukemia 1(Mcl-1) (Homo sapiens (Human), UniProt Q07820); assay: Terbium labeled Mcl-1 HTRF binding assay with Cy5-labeled BIM BH3 peptide
Protocol: Terbium labeled Myeloid Cell Leukemia 1(Mcl-1) homogeneous time-resolved fluorescence (HTRF) binding assay utilizing the BIM BH3 peptide (H2N-(C/Cy5Mal) WIAQELRRIGDEFN-OH) as the binding partner for Mcl-1.
This assay evaluated inhibition of the BH3 domain: Mcl-1 interaction by measuring the displacement of Cy5-labeled BIM BH3 peptide (H2N—(C/Cy5Mal) WIAQELRRIGDEFN-OH) in the HTRF assay format.
The following assay and stock buffers were prepared for use in the assay: (a) Stock buffer: 10 mM Tris-HCl, pH=7.5+150 mM NaCl, filtered, sterilized, and stored at 4° C.; and (b) 1× assay buffer, where the following ingredients were added fresh to stock buffer: 2 mM dithiothreitol (DTT), 0.0025% Tween-20, 0.1 mg/mL bovine serum albumin (BSA). The 1×Tb-Mcl-1+Cy5 Bim peptide solution was prepared by diluting the protein stock solution using the 1× assay buffer (b) to 25 pM Tb-Mcl-1 and 8 nM Cy5 Bim peptide.
Using the Acoustic ECHO, 100 nL of 100× test compound(s) were dispensed into individual wells of a white 384-well Perkin Elmer Proxiplate, for a final compound concentration of lx and final DMSO concentration of 1%. Inhibitor control and neutral control (NC, 100 nL of 100% DMSO) were stamped into columns 23 and 24 of assay plate. Into each well of the plate was then dispensed 10 μL of the 1×Tb-Mcl-1+Cy5 Bim peptide solution. The plate was centrifuged with a cover plate at 1000 rpm for 1 minute, then incubated for 60 minutes at room temperature with plates covered.
The TR-FRET signal was read on an BMG PHERAStar FSX MicroPlate Reader at room temperature using the HTRF optic module (HTRF: excitation: 337 nm, light source: laser, emission A: 665 nm, emission B: 620 nm, integration start: 60 μs, integration time: […]).
The BMG PHERAStar FSX MicroPlate Reader was used to measure fluorescence intensity at two emission wavelengths—665 nm and 620 nm—and report relative fluorescence units (RFU) for both emissions, as well as a ratio of the emissions (665 nm/620 nm)*10,000. The RFU values were normalized to percent inhibition as follows:
% inhibition=((NC−IC)−(compound−IC))/(NC−IC))*100
where IC (inhibitor control, low signal)=mean signal of 1×Tb-MCl-1+Cy5 Bim peptide+inhibitor control or 100% inhibition of Mcl-1; NC (neutral control, high signal)=mean signal 1×Tb-MCl-1+Cy5 Bim peptide with DMSO only or 0% inhibition An 11-point dose response curve was generated to determine IC50 values (using GenData) based on the following equation:
Y=Bottom+(Top−Bottom)/(1+10^((IogIC50−X)*HillSlope))
where Y=% inhibition in the presence of X inhibitor concentration; Top=100% inhibition derived from the IC (mean signal of Mcl-1+inhibitor control); Bottom=0% inhibition derived from the NC (mean signal of Mcl-1+DMSO); Hillslope=Hill coefficient; and IC50=concentration of compound with 50% inhibition in relation to top/neutral control (NC).
In this assay [L]=8 nM and Kd=10 nM

MOLP8 cells = assay: MOLP8 CellEvent Caspase-3/7 Green IncuCyte live-cell apoptosis assay; type: cell-based, human
Protocol: (§1) MCL-1 is a regulator of apoptosis and is highly over-expressed in tumor cells that escape cell death. The assay evaluates the cellular potency of small-molecule compounds targeting regulators of the apoptosis pathway, primarily MCL-1, Bfl-1, Bcl-2, and other proteins of the Bcl-2 family. Protein-protein inhibitors disrupting the interaction of anti-apoptotic regulators with BH3-domain proteins initiate apoptosis.
Activation of the apoptotic pathway was measured using the CellEvent™ Caspase-3/7 Green ReadyProbes™ Reagent (Thermo Fisher C10423, C10723). This assay produces a green fluorescent stain in cells that enter the apoptosis pathway. CellEvent® Caspase-3/7 Green reagent is a four amino acid peptide (DEVD) conjugated to a nucleic acid-binding dye that is non-fluorescent when not bound to DNA. The CellEvent® Caspase-3/7 Green reagent is intrinsically non-fluorescent, as the DEVD peptide inhibits binding of the dye to DNA. Upon activation of caspase-3/7 in apoptotic cells, the DEVD peptide is cleaved and the free dye can bind DNA, generating a bright green fluorescence. The activation of Caspase-3 and Caspase-7 is downstream of inhibition of MCL-1 or other apoptosis inhibiting proteins in cell lines that are dependent on them.
The live-cell readout on the IncuCyte permits tracking over time of the Caspase activation. […] The IncuCyte readout also allows one to normalize for cell number, as the suspension cells are hard to distribute evenly.
Signals were measured every 2 h for a duration of 22 h. The ratio of the Caspase mask to the Confluence mask, per image, as raw data, was calculated and the kinetic trace for every well was exported to Genedata Screener for analysis.
In Genedata Screener values for 6 h, 12 h, and 22 h from the kinetic traces were extracted. The values were normalized against negative controls (untreated cells). A standard dose-response analysis was performed on the normalized data.
The following data was reported at each of the following three aforementioned time points: (a) The dose-response curve, (b) The qAC50 and qAC50 Mode, and (c) Max Activity.
Cells were maintained in culture medium containing 10% Heat Inactivated (HI) FBS, 2 mM L-Glutamine and 50 μg/mL Gentamycin phenol red free RPMI-1640. Cells were split at 0.4 million/mL twice a week.
On Day 1, plates containing individual wells with test compounds at 10 mM concentration, 150 nL per well. The final concentrations range from […] compound (and no compound control) and compounds were thawed at room temperature for 1 hour. 25 μl of prewarmed medium was added into each well by multidrop (column 1, 3-22, 24), followed by addition of DMSO control (0.6% DMSO) in column 2. The plate was sealed using Breathe-Easy® sealing membrane and shaken for 30 min at room temperature to dissolve the test compound(s) in medium. The plate was then kept in the incubator for 1 hour at 37° C., 5% CO2.
MOLP8 cells in medium at […] (20000/50 μl final in assay) were prepared with CellEvent™ Caspase-3/7 Green Detection Reagent at 4 μM (2 μM final in assay). Once prepared, the cells were added to the test compound plate in an amount of 20000 and the plate was immediately placed in the IncuCyte and imaging started using following settings: 10× objective, 2 s exposure time in green channel, interval of 2 h, acquisition stopped after 22 h.
For analysis in IncuCyte, a Basic Analysis protocol was defined to calculate the “confluence” and “caspase” areas from the “Phase” and “green” images, respectively, as follows: (a) Confluence: Segmentation Adjustment 1, Hole Fill 0, Adjust Size −2, No filters (b) Caspase: Top-Hat segmentation, Radius 10, Threshold 0.3 GCU, Edge Split On with sensitivity 0, Hole Fill 0, Adjust Size 1, and filter on a minimum Area of 20 μm^2. The analyzer is trained on a sufficient number of positive and negative control wells, as well as compound treated wells, verifying that the “confluence” layer detects both live and dead (condensed) cells. […]

[2] = system: MOLP-8 human multiple myeloma cell line; assay: Caspase-Glo 3/7 assay in MOLP-8 cells; type: cell-based; conditions: Caspase-Glo 3/7, 2 hours incubation, averaged over all runs on all batches, read-out: MOLP8 AC50
From the text: as §1
The Caspase-Glo® 3/7 Assay is a luminescent assay that measures caspase-3 and -7 activities in purified enzyme preparations or cultures of adherent or suspension cells. The assay provides a proluminescent caspase-3/7 substrate, which contains the tetrapeptide sequence DEVD. This substrate is cleaved to release aminoluciferin, a substrate of luciferase used in the production of light. Addition of the single Caspase-Glo® 3/7 Reagent in an “add-mix-measure” format results in cell lysis, followed by caspase cleavage of the substrate and generation of a “glow-type” luminescent signal.
This assay uses the MOLP-8 human multiple myeloma cell line, which is sensitive to MCL-1 inhibition.
Cell cultures were maintained between 0.2 and 2.0×10^6 cells/mL. The cells were harvested by collection in 50 mL conical tubes. The cells were then pelleted at 500 g for 5 mins before removing supernatant and resuspension in fresh pre-warmed culture medium. The cells were counted and diluted as needed.
The assay reagent was prepared by transferring the buffer solution to the substrate vial and mixing. The solution may be stored for up to 1 week at 4° C. with negligible loss of signal.
Compounds were delivered in assay-ready plates (Proxiplate) and stored at −20° C. Assays always include 1 reference compound plate containing reference compounds. The plates were spotted with 40 nL of compounds (0.5% DMSO final in cells; serial dilution; 30 μM highest conc. 1/3 dilution, 10 doses, duplicates). The compounds were used at room temperature and 4 μL of pre-warmed media was added to all wells except column 2 and 23. The negative control was prepared by adding 1% DMSO in media. The positive control was prepared by adding the appropriate positive control compound in final concentration of 60 μM in media. The plate was prepared by adding 4 μL negative control to column 23, 4 μL positive control to column 2 and 4 μL cell suspension to all wells in the plate. The plate with cells was then incubated at 37° C. for 2 hours. The assay signal reagent is the Caspase-Glo solution described above, and 8 μL was added to all wells. The plates were then sealed and measured after 30 minutes.
The activity of a test compound was calculated as percent change in apoptosis induction as follows: […]

[3] = first table, [L]=8 nM, Kd=10 nM, before recalibration of the equipment
[4] = Homo sapiens, MOLP-8, 6 h, 6 h, read-out: MOLP8 Caspase 3/7 AC50 at 6 h
[5] = Homo sapiens, MOLP-8, 12 h, 12 h, read-out: MOLP8 Caspase 3/7 AC50 at 12 h
[6] = Homo sapiens, MOLP-8, 22 h, 22 h, read-out: MOLP8 Caspase 3/7 AC50 at 22 h
[7] = 6 h, read-out: MOLP8 Caspase 3/7 AC50 at 6 h
[8] = 12 h, read-out: MOLP8 Caspase 3/7 AC50 at 12 h
[9] = 22 h, read-out: MOLP8 Caspase 3/7 AC50 at 22 h

Sequence of Myeloid Cell Leukemia 1(Mcl-1) (Q07820 whole entry): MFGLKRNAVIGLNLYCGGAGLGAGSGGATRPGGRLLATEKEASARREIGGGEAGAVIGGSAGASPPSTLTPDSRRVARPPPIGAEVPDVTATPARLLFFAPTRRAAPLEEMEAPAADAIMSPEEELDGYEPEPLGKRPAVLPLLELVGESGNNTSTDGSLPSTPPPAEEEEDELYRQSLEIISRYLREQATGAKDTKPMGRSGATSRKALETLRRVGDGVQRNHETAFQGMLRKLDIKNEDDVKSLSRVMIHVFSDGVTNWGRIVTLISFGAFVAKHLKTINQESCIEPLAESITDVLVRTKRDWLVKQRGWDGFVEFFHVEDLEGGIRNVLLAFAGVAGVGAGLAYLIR

COC[C@H]1/C(F)=C/C[C@H](C)[C@@H](C)S(=O)(=O)NC(=O)c2ccc3c(c2)N(C[C@@H]2CCCN21)C[C@@]1(CCCc2cc(Cl)ccc21)CO3 [Compound 20]
Ki [1, 3]: 0.91 nM
AC50 (MOLP8 cells; [4]): 810 nM
AC50 (MOLP8 cells; [5]): 700 nM
AC50 (MOLP8 cells; [6]): 610 nM

COCCOCC1(CO)/C(F)=C/C[C@H](C)[C@@H](C)S(=O)(=O)NC(=O)c2ccc3c(c2)N(C[C@@H]2CCN21)C[C@@]1(CCCc2cc(Cl)ccc21)CO3 (single isomer, unassigned) [Compound 40]
Ki ([1]; obtained after recalibration of the equipment, averaged values over several runs): 0.16 nM
AC50 [2]: 194 nM

COCCOCCOC[C@H]1/C(F)=C/C[C@H](C)[C@@H](C)S(=O)(=O)NC(=O)c2ccc3c(c2)N(C[C@@H]2CCN21)C[C@@]1(CCCc2cc(Cl)ccc21)CO3 [Compound 14]
Ki [1, 3]: 0.34 nM
AC50 (MOLP8 cells; [4]): 300 nM
AC50 (MOLP8 cells; [5]): 350 nM
AC50 (MOLP8 cells; [6]): 370 nM

COCCOCC1(COCCOC)/C(F)=C/C[C@H](C)[C@@H](C)S(=O)(=O)NC(=O)c2ccc3c(c2)N(C[C@@H]2CCN21)C[C@@]1(CCCc2cc(Cl)ccc21)CO3 [Compound 41]
AC50 ([2]; Homo sapiens, MOLP-8, 2 h): 152 nM

C[C@@H]1[C@@H](C)C/C=C(\F)CN2CC[C@H]2CN2C[C@@]3(CCCc4cc(Cl)ccc43)COc3ccc(cc32)C(=O)NS1(=O)=O [Compound 2]
AC50 (MOLP8 cells; [4]): ~970 nM
AC50 (MOLP8 cells; [5]): ~1050 nM
AC50 (MOLP8 cells; [6]): 1200 nM
AC50 ([2]; Homo sapiens, MOLP-8, 2 h): 692 nM

C[C@@H]1[C@@H](C)C/C=C(\F)[C@H](COCCN2CCOCC2)N2CC[C@H]2CN2C[C@@]3(CCCc4cc(Cl)ccc43)COc3ccc(cc32)C(=O)NS1(=O)=O [Compound 30]
AC50 (MOLP8 cells; [4]): 630 nM
AC50 (MOLP8 cells; [5]): 560 nM
AC50 (MOLP8 cells; [6]): 620 nM

C[C@@H]1[C@@H](C)C/C=C(\F)[C@H](CN2CCOCC2)N2CC[C@H]2CN2C[C@@]3(CCCc4cc(Cl)ccc43)COc3ccc(cc32)C(=O)NS1(=O)=O [Compound 33]
AC50 (MOLP8 cells; [4]): 330 nM
AC50 (MOLP8 cells; [5]): 340 nM
AC50 (MOLP8 cells; [6]): 560 nM

C[C@@H]1[C@@H](C)C/C=C/CN2CC[C@H]2CN2CC3(CCOc4cc(Cl)ccc43)COc3ccc(cc32)C(=O)NS1(=O)=O (single isomer, unassigned) [Compound 6]
AC50 (MOLP8 cells; [7]): > 30000 nM
AC50 (MOLP8 cells; [8]): > 30000 nM
AC50 (MOLP8 cells; [9]): > 30000 nM

C[C@@H]1[C@@H](C)C/C=C(\F)[C@H](CN2CCN3CCN(C)C[C@@H]3C2)N2CC[C@H]2CN2C[C@@]3(CCCc4cc(Cl)ccc43)COc3ccc(cc32)C(=O)NS1(=O)=O [Compound 32]
AC50 (MOLP8 cells; [4]): 1100 nM
AC50 (MOLP8 cells; [5]): 960 nM
AC50 (MOLP8 cells; [6]): 960 nM

C[C@@H]1[C@@H](C)C/C=C(/F)CN2CC[C@H]2CN2C[C@@]3(CCCc4cc(Cl)ccc43)COc3ccc(cc32)C(=O)NS1(=O)=O [Compound 1]
AC50 (MOLP8 cells; [4]): 7760 nM
AC50 (MOLP8 cells; [5]): ~10500 nM
AC50 (MOLP8 cells; [6]): 7940 nM

C[C@@H]1[C@@H](C)C/C=C/CN2CC[C@H]2CN2CC3(CCOc4cc(Cl)ccc43)COc3ccc(cc32)C(=O)NS1(=O)=O (single isomer, unassigned) [Compound 5]
AC50 (MOLP8 cells; [7]): 6310 nM
AC50 (MOLP8 cells; [8]): 6600 nM
AC50 (MOLP8 cells; [9]): 5750 nM
AC50 ([2]; Homo sapiens, MOLP-8, 2 h): 3740 nM

C[C@@H]1[C@@H](C)C/C=C/CN2CC[C@H]2CN2C[C@@]3(CCCc4cc(Cl)ccc43)COc3ccc(cc32)C(=O)NS1(=O)=O [Compound 3]
Ki [1, 3]: 3.14 nM
AC50 (MOLP8 cells; [4]): 2400 nM
AC50 (MOLP8 cells; [5]): 2690 nM
AC50 (MOLP8 cells; [6]): 3090 nM
